From article PMC8151276, “An Integrated Approach toward NanoBRET Tracers for Analysis of GPCR Ligand Engagement” (Molecules, 2021)

Assays:
Type in all cases: binding
CCR1 = target: T1, CCR1 (Homo sapiens, UniProt P32246); assay: NanoBRET screen HiBiT-CCR1 in HEK293
T1 construct: purchased Promega (in-house HiBiT-GPCR construct library, NanoBRET)
T1 sequence (P32246 1-355): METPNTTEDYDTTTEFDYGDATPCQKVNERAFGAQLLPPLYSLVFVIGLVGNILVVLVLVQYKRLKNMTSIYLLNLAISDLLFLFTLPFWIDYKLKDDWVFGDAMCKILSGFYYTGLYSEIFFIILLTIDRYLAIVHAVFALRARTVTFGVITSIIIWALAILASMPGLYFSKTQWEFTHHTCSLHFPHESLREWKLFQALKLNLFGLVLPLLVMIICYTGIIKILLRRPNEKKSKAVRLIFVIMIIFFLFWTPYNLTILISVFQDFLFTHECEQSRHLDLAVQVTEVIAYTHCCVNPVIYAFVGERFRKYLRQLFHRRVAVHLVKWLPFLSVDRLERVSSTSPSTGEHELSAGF
Method: (§1) Each tracer candidate was screened across the entire library of HiBiT-GPCR constructs using NanoBRET as the detection modality. As depicted in Figure 4A, the specificity of interactions was evaluated through decrease in BRET due to competitive displacement of a bound tracer by excess parental compound. Each tracer was analyzed for binding to each HiBiT-GPCR fusion in the absence and in the presence of competing parental compound. Briefly, HEK293 cells were transfected with HiBiT-GPCR constructs diluted into promoterless DNA to reduce expression and maximize translocation to the cell surface. Each tracer candidate was then screened at concentrations of 1 μM and 0.1 μM across cells expressing these fusions. Cells were treated for 1.5 h with tracer either alone or in the presence of 20 μM competing parental compound (i.e., control). BRET was measured upon addition of purified LgBiT and subsequent complementation with HiBiT genetically fused to a GPCR. The specificity of interactions was assessed through a decrease in BRET signal due to competitive displacement of the bound tracer. To further gauge the robustness of these interactions, the fold response over the control (i.e., BRETtracer/BRETcontrol) was calculated. We chose a 1.5-fold response, which translates to ≥7-fold signal over noise as the minimal threshold required to score an interaction as positive. […]. Below we highlight the screening results obtained for our exemplary fluorescent tracers based on Clozapine, Amitriptyline and AZD1283.
(§2) HiBiT-GPCR DNA constructs were diluted in 10 mM Tris pH 8 to a final concentration of 0.01 μg/μL, arrayed in 96-well plates and stored at −20 °C. For transfection, HEK293 cells were suspended in Opti-MEM (without phenol red) supplemented with 2% fetal bovine serum (Seradigm) and 100 units/mL penicillin–streptomycin (Gibco) at a final concentration of 220,000 cells/mL and dispensed into white 96-well plates at 90 μL/well. Subsequent transfections and screens were carried using an Agilent Bravo Automated Liquid Handling Platform. First, the 96-well HiBiT DNA arrays were diluted 25-fold in Opti-MEM (without serum or phenol red) to a final concentration of 0.0004 μg/μL and 20 μL of the diluted DNAs were transferred into new 96-well plates. Next, promoterless carrier DNA (1 μg/μL) was diluted 25-fold (0.04 μg/μL) and then dispensed into the diluted arrays at 20 μL/well. Following brief mixing, Viafect transfection reagent (Promega) diluted 16-fold into Opti-MEM was dispensed into the plates at 40 μL/well. After mixing by pipetting, plates were incubated for 10 min on the pipetting station deck. The DNA-transfection reagent complexes were then added to plates containing cells. To facilitate the screen, 10 μL of DNA-transfection reagent complexes were added in duplicates to the top 4 and bottom 4 rows, resulting in two identical 48-well arrays per plate. Plates with transfected cells were incubated for 18–20 h at 37 °C/5% CO2. A screen of each tracer across the entire library using two different concentrations requires duplicate plates of transfected cells. Depending on the number of tracers being screened, transfections can be scaled up using the same ratios. The next day, for each tracer, four 20× screening solutions in tracer dilution buffer (Promega) were prepared: two duplicates at final concentration of 20 μM and two duplicates at a final concentration of 2 μM. A competing unmodified compound was added to one of each duplicate at a final concentration of 400 μM. The four resulting solutions were diluted 4-fold in Opti-MEM without serum or phenol red to generate 5× solutions (5 µM and 0.5 µM tracer +/− 100 μM competing compound). To screen the library, a BioTek MultiFlo FX liquid dispenser was used to dispense 22.5 µL of tracer solution to the top 4 rows and 22.5 µL tracer + competing compound solution to the 4 bottom rows. Plates were briefly mixed on an orbital shaker and incubated for 1.5 h at room temperature. […]

FZD8 = target: T2, FZD8 (Homo sapiens, UniProt Q9H461); assay: NanoBRET screen HiBiT-FZD8 in HEK293
T2 construct: purchased Promega (in-house HiBiT-GPCR construct library, NanoBRET)
Method: as §1, §2

HRH4 = target: T3, HRH4 (Homo sapiens, UniProt Q9H3N8); assay: NanoBRET screen HiBiT-HRH4 in HEK293
T3 construct: purchased Promega (in-house HiBiT-GPCR construct library, NanoBRET)
Method: as §1, §2

P2RY1 = target: T4, P2RY1 (Homo sapiens, UniProt P47900); assay: NanoBRET screen HiBiT-P2RY1 in HEK293
T4 construct: purchased Promega (in-house HiBiT-GPCR construct library, NanoBRET)
Method: as §1, §2

MCHR1 = target: T5, MCHR1 (Homo sapiens, UniProt Q99705); assay: NanoBRET screen HiBiT-MCHR1 in HEK293
T5 construct: purchased Promega (in-house HiBiT-GPCR construct library, NanoBRET)
Method: as §1, §2

NPY1R = target: T6, NPY1R (Homo sapiens, UniProt P25929); assay: NanoBRET screen HiBiT-NPY1R in HEK293
T6 construct: purchased Promega (in-house HiBiT-GPCR construct library, NanoBRET)
T6 sequence (P25929 1-384): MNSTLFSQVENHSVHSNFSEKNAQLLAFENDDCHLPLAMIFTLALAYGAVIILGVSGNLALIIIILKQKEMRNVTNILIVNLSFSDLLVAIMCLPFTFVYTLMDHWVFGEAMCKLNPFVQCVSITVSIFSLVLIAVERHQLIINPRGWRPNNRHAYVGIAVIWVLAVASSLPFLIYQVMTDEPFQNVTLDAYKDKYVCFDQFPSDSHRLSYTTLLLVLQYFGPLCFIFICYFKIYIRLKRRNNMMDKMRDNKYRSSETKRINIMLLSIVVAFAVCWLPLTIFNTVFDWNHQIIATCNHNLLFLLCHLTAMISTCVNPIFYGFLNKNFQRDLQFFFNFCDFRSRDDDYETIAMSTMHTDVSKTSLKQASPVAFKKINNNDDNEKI
Method: as §1, §2

GRM5 = target: T7, GRM5 (Homo sapiens, UniProt P41594); assay: NanoBRET screen HiBiT-GRM5 in HEK293; settings: GRM5
T7 construct: purchased Promega (in-house HiBiT-GPCR construct library, NanoBRET)
Method: as §1, §2

[1] = tracer at 0.1μM, listed as amitriptyline-b-2-NB590
[2] = tracer at 1μM, listed as amitriptyline-b-2-NB590

T3 sequence (Q9H3N8 whole entry): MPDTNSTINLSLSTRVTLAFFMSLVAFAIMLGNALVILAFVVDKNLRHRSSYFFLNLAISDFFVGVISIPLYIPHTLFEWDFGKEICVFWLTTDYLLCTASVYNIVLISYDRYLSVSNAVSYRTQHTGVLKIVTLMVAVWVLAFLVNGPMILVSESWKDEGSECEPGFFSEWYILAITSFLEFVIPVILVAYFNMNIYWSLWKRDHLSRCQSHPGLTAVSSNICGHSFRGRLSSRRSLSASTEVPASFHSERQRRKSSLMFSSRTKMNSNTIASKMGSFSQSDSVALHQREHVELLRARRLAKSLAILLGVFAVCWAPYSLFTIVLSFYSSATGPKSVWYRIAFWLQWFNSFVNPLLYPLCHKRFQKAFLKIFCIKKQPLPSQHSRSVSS
T7 sequence (P41594 21-1212): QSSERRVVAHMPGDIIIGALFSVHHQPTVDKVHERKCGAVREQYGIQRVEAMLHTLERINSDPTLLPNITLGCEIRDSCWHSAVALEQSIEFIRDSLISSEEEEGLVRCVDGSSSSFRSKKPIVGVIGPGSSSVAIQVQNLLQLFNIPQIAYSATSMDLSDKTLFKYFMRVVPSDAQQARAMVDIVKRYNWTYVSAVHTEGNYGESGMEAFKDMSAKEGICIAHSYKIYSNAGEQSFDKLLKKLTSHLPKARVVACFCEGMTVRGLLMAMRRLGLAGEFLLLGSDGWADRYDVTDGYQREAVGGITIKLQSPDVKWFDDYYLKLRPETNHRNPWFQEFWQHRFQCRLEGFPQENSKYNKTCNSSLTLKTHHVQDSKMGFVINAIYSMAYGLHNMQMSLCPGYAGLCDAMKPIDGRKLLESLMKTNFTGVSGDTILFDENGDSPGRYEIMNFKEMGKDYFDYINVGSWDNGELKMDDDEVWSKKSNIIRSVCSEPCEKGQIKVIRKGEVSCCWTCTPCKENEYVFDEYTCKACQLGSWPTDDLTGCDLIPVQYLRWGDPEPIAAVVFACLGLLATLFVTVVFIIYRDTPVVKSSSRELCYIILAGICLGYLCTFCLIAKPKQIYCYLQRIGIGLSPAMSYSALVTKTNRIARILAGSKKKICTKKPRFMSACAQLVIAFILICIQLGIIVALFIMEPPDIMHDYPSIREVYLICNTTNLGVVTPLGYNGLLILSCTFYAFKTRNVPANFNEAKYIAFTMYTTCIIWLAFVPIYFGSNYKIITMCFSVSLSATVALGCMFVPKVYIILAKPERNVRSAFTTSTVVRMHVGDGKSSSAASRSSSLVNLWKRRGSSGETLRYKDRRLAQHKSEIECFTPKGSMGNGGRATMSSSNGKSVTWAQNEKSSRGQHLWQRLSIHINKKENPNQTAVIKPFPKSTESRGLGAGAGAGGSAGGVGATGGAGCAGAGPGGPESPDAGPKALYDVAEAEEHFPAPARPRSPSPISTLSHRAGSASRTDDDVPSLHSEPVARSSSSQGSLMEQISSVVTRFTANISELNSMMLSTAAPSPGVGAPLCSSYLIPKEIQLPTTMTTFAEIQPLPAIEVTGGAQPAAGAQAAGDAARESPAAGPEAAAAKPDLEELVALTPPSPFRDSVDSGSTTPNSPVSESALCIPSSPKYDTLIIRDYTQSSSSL
T5 sequence (Q99705 whole entry): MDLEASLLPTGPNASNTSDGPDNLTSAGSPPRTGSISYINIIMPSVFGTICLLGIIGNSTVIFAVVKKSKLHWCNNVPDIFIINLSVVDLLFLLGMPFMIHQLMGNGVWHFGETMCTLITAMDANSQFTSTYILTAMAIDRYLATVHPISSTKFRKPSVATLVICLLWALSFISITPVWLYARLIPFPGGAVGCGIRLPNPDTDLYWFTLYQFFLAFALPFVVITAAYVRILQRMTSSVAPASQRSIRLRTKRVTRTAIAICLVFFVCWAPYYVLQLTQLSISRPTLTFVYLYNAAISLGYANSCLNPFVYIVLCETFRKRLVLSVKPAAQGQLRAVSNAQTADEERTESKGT
T4 sequence (P47900 whole entry): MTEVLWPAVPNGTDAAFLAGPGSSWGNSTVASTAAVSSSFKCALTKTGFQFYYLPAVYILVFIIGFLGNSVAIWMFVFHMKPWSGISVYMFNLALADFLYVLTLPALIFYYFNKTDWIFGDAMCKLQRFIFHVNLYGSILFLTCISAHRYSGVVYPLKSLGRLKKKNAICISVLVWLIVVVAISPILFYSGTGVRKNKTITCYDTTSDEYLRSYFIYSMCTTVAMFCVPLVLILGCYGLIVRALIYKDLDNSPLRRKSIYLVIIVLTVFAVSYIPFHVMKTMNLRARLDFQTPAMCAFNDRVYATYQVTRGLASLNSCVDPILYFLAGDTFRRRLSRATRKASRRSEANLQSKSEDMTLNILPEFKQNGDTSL
T2 sequence (Q9H461 28-694): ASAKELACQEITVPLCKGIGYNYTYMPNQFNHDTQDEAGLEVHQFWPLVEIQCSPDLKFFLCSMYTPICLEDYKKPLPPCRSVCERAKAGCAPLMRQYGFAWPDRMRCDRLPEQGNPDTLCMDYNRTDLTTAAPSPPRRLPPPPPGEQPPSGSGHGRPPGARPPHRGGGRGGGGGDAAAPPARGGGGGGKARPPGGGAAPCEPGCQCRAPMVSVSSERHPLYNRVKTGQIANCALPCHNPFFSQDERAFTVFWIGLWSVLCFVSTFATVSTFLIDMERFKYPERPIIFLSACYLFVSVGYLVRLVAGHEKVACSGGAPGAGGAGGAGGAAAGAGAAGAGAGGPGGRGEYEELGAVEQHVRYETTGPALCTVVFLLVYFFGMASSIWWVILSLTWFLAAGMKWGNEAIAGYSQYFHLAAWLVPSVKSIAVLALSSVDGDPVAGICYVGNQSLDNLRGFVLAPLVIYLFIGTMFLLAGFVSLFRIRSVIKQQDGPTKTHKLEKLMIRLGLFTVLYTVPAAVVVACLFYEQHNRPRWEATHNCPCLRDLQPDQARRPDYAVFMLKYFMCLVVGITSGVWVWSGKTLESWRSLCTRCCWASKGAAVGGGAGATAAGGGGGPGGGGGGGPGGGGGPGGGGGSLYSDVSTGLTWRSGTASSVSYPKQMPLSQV

CCOC(=O)c1cc(C#N)c(N2CCC(C(=O)NS(=O)(=O)Cc3ccccc3/C=C/C(=O)NCCNC(=O)CCc3ccc4n3[B-](F)(F)[N+]3=C(c5ccc[nH]5)C=CC3=C4)CC2)nc1C [AZD1283-1-NB590]
NanoBRET Fold Response (CCR1; CCR1, 0.1μM): 1.05 | NanoBRET Fold Response (CCR1; CCR1, 1μM): 1.03 | NanoBRET Fold Response (FZD8; FZD8, 0.1μM): 1.11 | NanoBRET Fold Response (FZD8; FZD8, 1μM): 0.71 | NanoBRET Fold Response (HRH4; HRH4, 0.1μM): 1.16 | NanoBRET Fold Response (HRH4; HRH4, 1μM): 1.10 | NanoBRET Fold Response (P2RY1; P2RY1, 0.1μM): 1.06 | NanoBRET Fold Response (P2RY1; P2RY1, 1μM): 1.05 | NanoBRET Fold Response (MCHR1; MCHR1, 0.1μM): 1.00 | NanoBRET Fold Response (MCHR1; MCHR1, 1μM): 1.08 | NanoBRET Fold Response (NPY1R; NPY1R, 0.1μM): 1.10 | NanoBRET Fold Response (NPY1R; NPY1R, 1μM): 1.04 | NanoBRET Fold Response (GRM5; 0.1μM): 1.01 | NanoBRET Fold Response (GRM5; 1μM): 0.97

N#CN=C(NCCCOc1cccc(CN2CCCCC2)c1)NCCNC(=O)CCOCCOCCOCCOCCNC(=O)CCc1ccc2n1[B-](F)(F)[N+]1=C(c3ccc[nH]3)C=CC1=C2 [Aminopotentidine-2-NB590]
NanoBRET Fold Response (CCR1; CCR1, tracer 0.1μM): 0.95 | NanoBRET Fold Response (CCR1; CCR1, tracer 1μM): 1.03 | NanoBRET Fold Response (FZD8; FZD8, tracer 0.1μM): 0.98 | NanoBRET Fold Response (FZD8; FZD8, tracer 1μM): 1.01 | NanoBRET Fold Response (HRH4; HRH4, tracer 0.1μM): 0.91 | NanoBRET Fold Response (HRH4; HRH4, tracer 1μM): 1.02 | NanoBRET Fold Response (P2RY1; P2RY1, tracer 0.1μM): 1.02 | NanoBRET Fold Response (P2RY1; P2RY1, tracer 1μM): 1.02 | NanoBRET Fold Response (MCHR1; MCHR1, tracer 0.1μM): 0.99 | NanoBRET Fold Response (MCHR1; MCHR1, tracer 1μM): 0.95 | NanoBRET Fold Response (NPY1R; NPY1R, tracer 0.1μM): 0.99 | NanoBRET Fold Response (NPY1R; NPY1R, tracer 1μM): 1.01 | NanoBRET Fold Response (GRM5; tracer 0.1μM): 1.01 | NanoBRET Fold Response (GRM5; tracer 1μM): 0.98

CN(C)CCC=C1c2ccccc2CCc2ccc(C(=O)NCCNC(=O)CCOCCOCCOCCOCCNC(=O)CCc3ccc4n3[B-](F)(F)[N+]3=C(c5ccc[nH]5)C=CC3=C4)cc21 [Amitriptyline-a-2-NB590]
NanoBRET Fold Response (CCR1; tracer at 0.1μM): 0.99 | NanoBRET Fold Response (CCR1; tracer at 1μM): 1.07 | NanoBRET Fold Response (HRH4; tracer at 0.1μM): 1.23 | NanoBRET Fold Response (HRH4; tracer at 1μM): 1.04 | NanoBRET Fold Response (P2RY1; tracer at 0.1μM): 0.97 | NanoBRET Fold Response (P2RY1; tracer at 1μM): 1.01 | NanoBRET Fold Response (MCHR1; tracer at 0.1μM): 1.01 | NanoBRET Fold Response (MCHR1; tracer at 1μM): 1.09 | NanoBRET Fold Response (NPY1R; tracer at 0.1μM): 1.00 | NanoBRET Fold Response (NPY1R; tracer at 1μM): 1.03

CN(C)CCC=C1c2ccccc2CCc2ccc(C(=O)NCCNC(=O)CCOCCOCCOCCOCCNC(=O)CCc3ccc4n3[B-](F)(F)[N+]3=C(c5ccc[nH]5)C=CC3=C4)cc21 [Amitriptyline-b-2-NB590]
NanoBRET Fold Response (CCR1; [1]): 0.84 | NanoBRET Fold Response (CCR1; tracer at 1μM): 0.97 | NanoBRET Fold Response (FZD8; tracer at 0.1μM): 1.03 | NanoBRET Fold Response (FZD8; tracer at 1μM): 1.00 | NanoBRET Fold Response (HRH4; [1]): 0.97 | NanoBRET Fold Response (HRH4; [2]): 1.13 | NanoBRET Fold Response (P2RY1; [1]): 1.13 | NanoBRET Fold Response (MCHR1; [1]): 0.79 | NanoBRET Fold Response (MCHR1; [2]): 1.01 | NanoBRET Fold Response (NPY1R; [1]): 0.90 | NanoBRET Fold Response (NPY1R; [2]): 1.11 | NanoBRET Fold Response (GRM5; tracer 0.1μM): 1.05 | NanoBRET Fold Response (GRM5; tracer 1μM): 1.02
